Experimental data from patent US20090326037A1 (priority 2005, published 2009).
Several values for one entry are separate records, joined by “and”; a condition that tells them apart may be missing. Identical values can stand only once. Counter-ions that a name gives are not always drawn. Like-named read-outs stand apart in the source and are kept apart here.

How the values were obtained:
[1] = Toxicity (lethal effect, LD50) in mice; assay type: in vivo; conditions: endogastrically, observation 14 days
Description: (§1) Determination of toxicity of 1-methyl-2-phenylthiomethyl-3-carbethoxy-5-oxy-6-bromindol sulfon as compared with arbidol.
(§2) The administration of the preparations was carried out endogastrically, the period of observation of the animals was 14 days.

[2] = tested on: avian influenza virus (H5N1); assay type: in vivo, white mice; conditions: orally
[3] = tested on: influenza virus A/PR/8/34; assay type: cell-based; conditions: influenza virus A/PR/8/34, MDCK cells; concentration not given
[4] = Toxicity (lethal effect, LD50) in rats; assay type: in vivo; conditions: endogastrically, observation 14 days
Description: as §1, §2

[5] = tested on: influenza virus H3N2; assay type: in vivo, mice
[6] = tested on: influenza A/Singapore/1/57 virus; test: microbe, parasite or virus in culture; assay type: cell-based; conditions: for Percent of inhibition of OD 490: added 2 hours after infection

For `CCOC(=O)c1c(CSc2ccccc2)n(C)c2cc(Br)c(O)c(CN(C)C)c12` [Arbidol, 1-methyl-2-phenylthiomethyl-3-carbethoxy-4-dimethylaminomethyl-5-oxy-6-bromindol hydrochloride], the “Lethal effect upon administration to mice” value ([1]; Dose 100 mg/kg) was 0/6, the “Lethal effect upon administration to mice” value ([1]; Dose 250 mg/kg) was 0/6 and the “Lethal effect upon administration to mice” value ([1]; Dose 500 mg/kg) was 1/6. The “Lethal effect upon administration to mice” value ([1]; Dose 1000 mg/kg) was 3/6, the “Lethal effect upon administration to mice” value ([1]; Dose 3000 mg/kg) was 6/6 and the LD50 at 14 days ([1]; mouse, in vivo, oral, mice) was 860 ± 50 mg/kg. The “Surviving mice, %” value ([2]; Arbidol 30 mg/kg + Oseltamivir 0.25 mg/kg) was 70%, the “Surviving mice, %” value ([2]; Arbidol 30 mg/kg + Oseltamivir 1.0 mg/kg) was 85% and the “Surviving mice, %” value ([2]; Arbidol 30 mg/kg + Oseltamivir 2.5 mg/kg) was 100%. For the same compound, the “Surviving mice, %” value ([2]; Arbidol 30 mg/kg alone (Oseltamivir 0 mg/kg)) was 65%, the “Percent of suppression of virus reproduction” value [3] was 60% and the “Lethal effect upon administration to rats” value ([4]; Dose 100 mg/kg) was 0/6. The “Lethal effect upon administration to rats” value ([4]; Dose 250 mg/kg) was 0/6, the “Lethal effect upon administration to rats” value ([4]; Dose 500 mg/kg) was 1/6 and the “Lethal effect upon administration to rats” value ([4]; Dose 1000 mg/kg) was 3/6. The “Lethal effect upon administration to rats” value ([4]; Dose 3000 mg/kg) was 6/6, the LD50 at 14 days ([4]; rat, in vivo, oral, rats) was 1720 ± 70 mg/kg and the “Percent of surviving mice” value ([5]; Concentration 15) was 80%. For the same compound, the “Percent of surviving mice” value ([5]; Concentration 30, hydrochloride) was 80% and 60% and 70%, the “suppression of virus reproduction” value ([6]; 1 μg of arbidol with 10-12 mg of zanamivir or oseltamivir) was 100% and the “Percent of inhibition of OD 490” value ([6]; A or B 0.3 μg/ml + Zanamivir 0.3 μg) was 20%. The “Percent of inhibition of OD 490” value ([6]; A or B 0.3 μg/ml + Zanamivir 1 μg) was 30%, the “Percent of inhibition of OD 490” value ([6]; A or B 0.3 μg/ml + Zanamivir 3.3 μg) was 37% and the “Percent of inhibition of OD 490” value ([6]; A or B 0.3 μg/ml + Zanamivir 10 μg) was 48%. The “Percent of inhibition of OD 490” value ([6]; A or B 0.3 μg/ml + Zanamivir 33 μg) was 60%, the “Percent of inhibition of OD 490” value ([6]; A or B 1 μg/ml + Zanamivir 0.3 μg) was 33% and the “Percent of inhibition of OD 490” value ([6]; A or B 1 μg/ml + Zanamivir 3.3 μg) was 46%. For the same compound, the “Percent of inhibition of OD 490” value ([6]; A or B 1 μg/ml + Zanamivir 10 μg) was 100%, the “Percent of inhibition of OD 490” value ([6]; A or B 1 μg/ml + Zanamivir 33 μg) was 100% and the “Percent of inhibition of OD 490” value ([6]; A or B 3 μg/ml + Zanamivir 0.3 μg) was 60%. The “Percent of inhibition of OD 490” value ([6]; A or B 3 μg/ml + Zanamivir 1 μg) was 58%, the “Percent of inhibition of OD 490” value ([6]; A or B 3 μg/ml + Zanamivir 3.3 μg) was 93% and the “Percent of inhibition of OD 490” value ([6]; A or B 3 μg/ml + Zanamivir 10 μg) was 100%. The “Percent of inhibition of OD 490” value ([6]; A or B 3 μg/ml + Zanamivir 33 μg) was 100%, the “Percent of inhibition of OD 490” value ([6]; A or B 5 μg/ml + Zanamivir 0.3 μg) was 69% and the “Percent of inhibition of OD 490” value ([6]; A or B 5 μg/ml + Zanamivir 1 μg) was 85%. The “Percent of inhibition of OD 490” value ([6]; A or B 5 μg/ml + Zanamivir 3.3 μg) was 88%, the “Percent of inhibition of OD 490” value ([6]; A or B 5 μg/ml + Zanamivir 10 μg) was 100% and the “Percent of inhibition of OD 490” value ([6]; A or B 5 μg/ml + Zanamivir 33 μg) was 100%. The “Percent of inhibition of OD 490” value ([6]; A or B 10 μg/ml + Zanamivir 0.3 μg) was 71%, the “Percent of inhibition of OD 490” value ([6]; A or B 10 μg/ml + Zanamivir 1 μg) was 85% and the “Percent of inhibition of OD 490” value ([6]; A or B 10 μg/ml + Zanamivir 3.3 μg) was 98%. For the same compound, the “Percent of inhibition of OD 490” value ([6]; A or B 10 μg/ml + Zanamivir 10 μg) was 100, 100%, the “Percent of inhibition of OD 490” value ([6]; A or B 10 μg/ml + Zanamivir 33 μg) was 100, 100% and the “Percent of inhibition of OD 490” value ([6]; A or B 10 μg/ml alone (Zanamivir 0)) was 22%. The “Percent of inhibition of OD 490” value ([6]; A or C 0.3 μg/ml + Oseltamivir 0.4 μg) was 35%, the “Percent of inhibition of OD 490” value ([6]; A or C 0.3 μg/ml + Oseltamivir 4.1 μg) was 37% and the “Percent of inhibition of OD 490” value ([6]; A or C 0.3 μg/ml + Oseltamivir 12.3 μg) was 47%. The “Percent of inhibition of OD 490” value ([6]; A or C 1 μg/ml + Oseltamivir 0.4 μg) was 48%, the “Percent of inhibition of OD 490” value ([6]; A or C 1 μg/ml + Oseltamivir 1.2 μg) was 59% and the “Percent of inhibition of OD 490” value ([6]; A or C 1 μg/ml + Oseltamivir 4.1 μg) was 56%. For the same compound, the “Percent of inhibition of OD 490” value ([6]; A or C 1 μg/ml + Oseltamivir 12.3 μg) was 100%, the “Percent of inhibition of OD 490” value ([6]; A or C 1 μg/ml + Oseltamivir 41 μg) was 100% and the “Percent of inhibition of OD 490” value ([6]; A or C 3 μg/ml + Oseltamivir 0.4 μg) was 62%. The “Percent of inhibition of OD 490” value ([6]; A or C 3 μg/ml + Oseltamivir 1.2 μg) was 58%, the “Percent of inhibition of OD 490” value ([6]; A or C 3 μg/ml + Oseltamivir 4.1 μg) was 90% and the “Percent of inhibition of OD 490” value ([6]; A or C 3 μg/ml + Oseltamivir 12.3 μg) was 100%. For the same compound, the “Percent of inhibition of OD 490” value ([6]; A or C 3 μg/ml + Oseltamivir 41 μg) was 100, 100%, the “Percent of inhibition of OD 490” value ([6]; A or C 5 μg/ml + Oseltamivir 0.4 μg) was 79% and the “Percent of inhibition of OD 490” value ([6]; A or C 5 μg/ml + Oseltamivir 1.2 μg) was 84%.
